Assay results as given in the supplement of paper PMC10733146.

Columns and labels:
Assay in all cases: viability relative to DMSO control (fraction); higher = less drug effect (more viable cells)
Conditions in all cases: 48 h
[1] = system: primary T-NHL patient cells (S058)
Outline: (§1)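 Cells were incubated for 48 h at 37 °C and 5% CO2 in RPMI-1640 with penicillin/streptomycin, L-glutamine and human serum, at 4 × 10^4 cells per well in 384-well plates with compounds pre-plated at five concentrations, one well each. These were primary mononuclear tumour cells, fresh or cryopreserved, Ficoll-isolated from blood or bone marrow or obtained from processed lymph node. Viability values are CellTiter-Glo luminescence relative to the median of 16 inner DMSO wells.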

[2] = system: primary AML patient cells (S037)
Outline: as §1

[3] = system: primary AML patient cells (S091)
Outline: as §1

[4] = system: primary AML patient cells (S012)
Outline: as §1

[5] = system: primary AML patient cells (S002)
Outline: as §1

[6] = system: primary AML patient cells (S017)
Outline: as §1

[7] = system: primary AML patient cells (S021)
Outline: as §1

[8] = system: primary DLBCL patient cells (S076)
Outline: as §1

[9] = system: primary AML patient cells (S011)
Outline: as §1

[10] = system: primary AML patient cells (S006)
Outline: as §1

[11] = system: primary AML patient cells (S089)
Outline: as §1

[12] = system: primary AML patient cells (S019)
Outline: as §1

[13] = system: primary CLL patient cells (S043)
Outline: as §1

[14] = system: primary AML patient cells (S007)
Outline: as §1

[15] = system: primary DLBCL patient cells (S049)
Outline: as §1

[16] = system: primary AML patient cells (S085)
Outline: as §1

[17] = system: primary AML patient cells (S081)
Outline: as §1

Nc1ccc2ncnc(NCCc3ccc(Oc4ccccc4)cc3)c2c1 [EVP4593]
viability ([1]; 0.008 µM): 1.09
viability ([1]; 0.04 µM): 0.934
viability ([1]; 0.2 µM): 0.784
viability ([1]; 1 µM): 0.809
viability ([1]; 5 µM): 0.715
viability ([2]; 0.008 µM): 0.943
viability ([2]; 0.04 µM): 0.813
viability ([2]; 0.2 µM): 0.859
viability ([2]; 1 µM): 1.08
viability ([2]; 5 µM): 1.07
viability ([3]; 0.008 µM): 0.891
viability ([3]; 0.04 µM): 0.837
viability ([3]; 0.2 µM): 0.869
viability ([3]; 1 µM): 0.624
viability ([3]; 5 µM): 0.532
viability ([4]; 0.008 µM): 1.05
viability ([4]; 0.04 µM): 1.03
viability ([4]; 0.2 µM): 1.07
viability ([4]; 1 µM): 0.992
viability ([4]; 5 µM): 1.05
viability ([5]; 0.008 µM): 0.922
viability ([5]; 0.04 µM): 0.857
viability ([5]; 0.2 µM): 0.753
viability ([5]; 1 µM): 0.668
viability ([5]; 5 µM): 0.726
viability ([6]; 0.008 µM): 0.889
viability ([6]; 0.04 µM): 0.933
viability ([6]; 0.2 µM): 0.875
viability ([6]; 1 µM): 0.901
viability ([6]; 5 µM): 0.795
viability ([7]; 0.008 µM): 0.769
viability ([7]; 0.04 µM): 0.659
viability ([7]; 0.2 µM): 0.572
viability ([7]; 1 µM): 0.437
viability ([7]; 5 µM): 0.439
viability ([8]; 0.008 µM): 0.999
viability ([8]; 0.04 µM): 0.989
viability ([8]; 0.2 µM): 0.741
viability ([8]; 1 µM): 0.657
viability ([8]; 5 µM): 0.551
viability ([9]; 0.008 µM): 0.746
viability ([9]; 0.04 µM): 0.633
viability ([9]; 0.2 µM): 0.617
viability ([9]; 1 µM): 0.467
viability ([9]; 5 µM): 0.459
viability ([10]; 0.008 µM): 0.855
viability ([10]; 0.04 µM): 0.755
viability ([10]; 0.2 µM): 0.557
viability ([10]; 1 µM): 0.362
viability ([10]; 5 µM): 0.248
viability ([11]; 0.008 µM): 0.701
viability ([11]; 0.04 µM): 0.737
viability ([11]; 0.2 µM): 0.629
viability ([11]; 1 µM): 0.44
viability ([11]; 5 µM): 0.215
viability ([12]; 0.008 µM): 0.922
viability ([12]; 0.04 µM): 0.883
viability ([12]; 0.2 µM): 0.84
viability ([12]; 1 µM): 0.82
viability ([12]; 5 µM): 0.764
viability ([13]; 0.008 µM): 0.794
viability ([13]; 0.04 µM): 0.794
viability ([13]; 0.2 µM): 0.774
viability ([13]; 1 µM): 0.726
viability ([13]; 5 µM): 0.695
viability ([14]; 0.008 µM): 0.722
viability ([14]; 0.04 µM): 0.514
viability ([14]; 0.2 µM): 0.379
viability ([14]; 1 µM): 0.257
viability ([14]; 5 µM): 0.217
viability ([15]; 0.008 µM): 0.89
viability ([15]; 0.04 µM): 0.763
viability ([15]; 0.2 µM): 0.37
viability ([15]; 1 µM): 0.257
viability ([15]; 5 µM): 0.197
viability ([16]; 0.008 µM): 2.31
viability ([16]; 0.04 µM): 0.901
viability ([16]; 0.2 µM): 1.11
viability ([16]; 1 µM): 0.666
viability ([16]; 5 µM): 0.55
viability ([17]; 0.008 µM): 0.859
viability ([17]; 0.04 µM): 0.821
viability ([17]; 0.2 µM): 0.799
viability ([17]; 1 µM): 0.784
viability ([17]; 5 µM): 0.78
